Experimental data reported in patent publication US20250090555A1, “METHOD FOR PRODUCING A CBD […] OR SOLID AND USE THEREOF” (Food4Innovations Ventures B.V., priority 2022, published 2025).

Columns and labels:
Assay type in all cases: physicochemical
[1] = Observation of physical stability: viscosity, phase separation, storage / shelf life; details: before or after homogenization or on storage
From the text: • 1. Before starting the experiment, the most optimal solubilizing phase of the emulsifier (organic or in aqueous phase) may be investigated. This could influence the droplet size and is different for every emulsifier (the movement of the emulsifier from the oil phase into the aqueous phase may be important in the formation of nano emulsions by this method). • 2. Prepare a pre-emulsion comprising the emulsifier in water or oil phase in order to fully dissolve the emulsifier. When mixing the emulsifier into the solubilizing phase, an Ultra turrax is used at 10000 rpm (stand 37) for 3 minutes. If needed, the emulsifier and solubilized phase could be heated prior to mixing. • 3. Mix the pre-emulsion by slowly adding the oil phase to the aqueous phase while mixing with an Ultra turrax at 12000 rpm (stand 40) for 5 min). • 4. Let the pre-emulsion mixture rest for 1 hour. • 5. Homogenize the emulsion with a homogenizer preferably between 300-1200 bar, and between 3 and 5 passes. • 6. Collect the sample and measure the temperature directly. • 7. Allow it to cool completely before measuring the turbidity. • 8. The concentrated emulsion may especially be made into a ready-to-drink clear beverage by diluting it with water. Therefore, dilute a small amount of the obtained concentrated emulsion from step 6 with water to observe the clarity and turbidity of the final product. […]

[2] = Turbidity of the emulsion before and after dilution with water, by turbidity meter; details: dilution factor not printed at the place
Experimental: A stable, optically clear, beverage is desirably obtained. Homogenization is carried out with a pressure of between 300 bar and 1500 bar, preferably about 800 bar. The homogenization pressure may be applied for between 1 and 5 passes. The ratio of emulsifier to carrier oil in the emulsion may be containing an excess amount of emulsifier in oil, which could be used to make an optically clear beverage. An optimal concentration of between 0 and 3 times more emulsifier in contrast to the oil phase will be tested. Cloudy beverages have a high turbidity, e.g., between 200 and 300 NTU, or even as high as 2,000 NTU. The aim is to develop a beverage with a turbidity<15 NTU. After production of the treatments, the turbidity will therefore be measured by a turbidity meter.
• 1. Before starting the experiment, the most optimal solubilizing phase of the emulsifier (organic or in aqueous phase) may be investigated. This could influence the droplet size and is different for every emulsifier (the movement of the emulsifier from the oil phase into the aqueous phase may be important in the formation of nano emulsions by this method). • 2. Prepare a pre-emulsion comprising the emulsifier in water or oil phase in order to fully dissolve the emulsifier. […] The concentrated emulsion may especially be made into a ready-to-drink clear beverage by diluting it with water. […]

[3] = Observation of foam formation of the emulsion / diluted beverage

Substance: Sucrose monostearate
- Viscosity / phase separation / storage behaviour [1]: became extremely viscous after a couple days of storage
- Turbidity [2]: > 15 NTU
- Foam formation [3]: no foam formation
